# In US20240293337A1, “USE OF DOXERCALCIFEROL TO TREAT AND/OR PREVENT UTERINE FIBROIDS OR POLYCYSTIC OVARY SYNDROME” (priority 2023, published 2024):
# Key:
# [1] = system: Human MSC derived adipocytes; assay: MSC derived adipocyte differentiation, 14 days, morphology and oil red-O staining; type: cell-based; conditions: 100 nM
# Procedure: Human mesenchymal stem cells (MSC) are used as an in vitro cell culture model of adipocyte precursors to assess adipocyte differentiation. MSC cells are purchased from (Lonza). The cells are cultured in the DMEM/F12 media containing 10% FBS. At approximately 80% confluence, the cells are trypsinized using TrypLE select enzyme (Gibco, MA) and are serially expanded. At the end of the culture expansion, MSCs are collected and centrifuged at 300×g for 5 minutes. Human MSCs are treated with doxercalciferol and are cultured in adipocyte induction medium for 14 days. Mesenchymal Adipogenesis Kit (Sigma) and manufacturer's induction protocol are used for adipocyte induction. Imaging and morphology analysis is performed on days 1, 7, 10, and 14. On day 14 when adipocyte differentiation is completed, the cells undergo oil red-O staining and are imaged for further morphology analysis.
# SW872 cells = assay: Adipogenesis gene expression in SW872 cells (qRT-PCR array); type: cell-based, human; conditions: 10 nM, 24 hours
# Procedure: SW872 cells are subcultured in T75 flasks for 24 hours. Cells are then treated for 24 hours with serum free basal media as a control or doxercalciferol at 1 nM, 10 nM, or 100 nM diluted in basal media (serum-free). After the incubation period, cells are imaged and analyzed for morphology and cell count. Cells are then collected for analysis of adipogenesis-related gene expression and cell culture media are collected for analysis of obesity related cytokines. RNA is extracted from SW872 cells treated with doxercalciferol. RNA extraction is done using TRIzol (Invitrogen, USA) according to the manufacturer's instructions. The concentration and purity of the extracted RNA is checked using a NanoDrop spectrometer (Thermo Scientific, MA, USA). Quantitative real-time PCR (qPCR) of adipogenesis related genes in SW872 cells is performed using a RT^2 Profiler™ PCR Array Human Apidogenesis according to the manufacturer's instructions (Qiagen, Sciences Inc., MD, USA).
# H295R cells = assay: Testosterone production in H295R cell conditioned media (ELISA); type: cell-based, human; conditions: 24 hours
# Procedure: H295R cells are subcultured in T75 flasks for 24 hours. Cells are then treated for 24 hours with serum free basal media as a control or doxercalciferol at 1 nM, 10 nM, or 100 nM diluted in basal media (serum-free) at a 1:1 ratio. After the incubation period, cells are imaged and analyzed for morphology and cell count. Cells are then collected for analysis of steroidogenesis-related gene expression. Cell culture media are collected and used for testosterone quantification using ELISA based Testosterone Parameter Assay Kit (R&D system) per the manufacturer's protocol. The testosterone level is quantified using a multimode microplate reader system, Varioskan LUX Multimode Microplate Reader (Thermo Fisher).
# [2] = Serum chemistry in PCOS mice; type: in vivo, C57BL/6 mice; conditions: PCOS mice treated with doxercalciferol, n 7
# Procedure: Five weeks after placebo or LTZ pellet implantation, mice undergo intraperitoneal injection of doxercalciferol (300 ng/kg) or saline 3 times per week for 6 weeks. Six weeks after doxercalciferol treatment, the mice are anesthetized and ovary, uterus, gonadal white fat, kidney, and liver tissue are collected. Each of these tissues are fixed in 4% paraformaldehyde for further histological analysis.
# Blood is collected from all groups by cardiac exsanguination under isoflurane anesthesia: serum is separated and stored at −80° C. Serum chemistry analysis including BUN, ALT, ALP, AST, TBIL, calcium, TP, ALB, and NA+ is performed in University of Chicago Animal Resource Center (UC ARC) with VETSCAN® VS2 Chemistry Analyzer (Zoetis).
# [3] = system: patient derived xenograft (PDX) mouse model of uterine fibroids (UF); assay: Tumor growth in patient derived xenograft (PDX) mouse model of uterine fibroids; type: in vivo, NOD/SCID mice; conditions: PDX UF mice, 300 ng/kg i.p. 3 times per week, 6 weeks
# Procedure: Female NOD/SCID are housed in a vivarium for 1 week under specific pathogen-free conditions. The animal experiment protocol for this study is approved, and all animal experiments are performed in compliance with policies and guidelines for use of laboratory animals. UF samples are obtained from African-American female patients with UF (n=4). This human UF tissue is xenografted into female mice that have been hormonally supplemented with progesterone and estradiol (n=2 mice/patient). Tumor size is measured at implantation. After xenograft mice undergo intraperitoneal injection of doxercalciferol (300 ng/kg, 3 times per week) or saline for 6 weeks. Body weight is monitored weekly during doxercalciferol treatment. Six weeks after doxercalciferol treatment insulin resistance is assessed using GTT and then mice are anesthetized and blood is collected to measure liver enzyme and AMH levels, ovary tissue is removed for histological analysis, total RNA is extracted for sequencing, and tumor size is measured with a digital caliper.
# [4] = Glucose tolerance test in PDX UF mice; type: in vivo, NOD/SCID mice; conditions: 6 weeks after treatment, vs control
# Procedure: (§1) After xenograft mice undergo intraperitoneal injection of doxercalciferol (300 ng/kg, 3 times per week) or saline for 6 weeks. Body weight is monitored weekly during doxercalciferol treatment. Six weeks after doxercalciferol treatment insulin resistance is assessed using GTT and then mice are anesthetized and blood is collected to measure liver enzyme and AMH levels, ovary tissue is removed for histological analysis, total RNA is extracted for sequencing, and tumor size is measured with a digital caliper.
# Glucose tolerance testing is performed on PDX UF mice 6 weeks after doxercalciferol treatment. Mice are tested either without fasting or after fasting for 16 h (5 p.m. to 9 a.m.), with free access to drinking water, after which they receive an intra-peritoneal (i.p.) injection of D-glucose (2.0 g/kg body weight). Blood glucose level is measured at 0, 15, 30, 60, 90, and 120 min following glucose injection using a Bayer glucose monitor (Roche Diagnostics Corp, IN, USA).
# [5] = Serum measurements in PDX UF mice (liver enzymes, calcium, AMH); type: in vivo, NOD/SCID mice
# Procedure: as §1
# Blood is collected from all groups by cardiac exsanguination under isoflurane anesthesia: serum is separated and stored at −80° C. Serum levels are measured for AMH, ALT, and total bilirubin.
structure (smiles),measurement,setting,value
C=C1/C(=C\C=C2/CCC[C@]3(C)[C@@H]([C@H](C)/C=C/[C@H](C)C(C)C)CC[C@@H]23)C[C@@H](O)C[C@@H]1O [doxercalciferol],"Oil red-O staining, presence of adipocytes","[1]; 1 nM, 10 nM, day 14",presence of adipocytes in all treatment groups except the 100 nM group
same,cell morphology,[1]; 14 days,most cells dead
same,CEBP relative gene expression,SW872 cells,significantly upregulated
same,CEBPD relative gene expression,SW872 cells,significantly upregulated
same,PRDM16 relative gene expression,SW872 cells,significantly downregulated
same,RXRA relative gene expression,SW872 cells,significantly upregulated
same,SREBF1 relative gene expression,SW872 cells,significantly downregulated
same,WNT1 relative gene expression,SW872 cells,significantly downregulated
same,WNT10B relative gene expression,SW872 cells,significantly downregulated
same,expression of most adipogenesis genes,SW872 cells; not significant for most genes,downregulated
same,Testosterone production,H295R cells; 1 nM,significantly decreased
same,Testosterone production,H295R cells; 10 nM,not significantly changed
same,Testosterone production,H295R cells; 100 nM,significantly decreased
same,"ALB, Mean",[2],3.9 g/dL
same,"ALP, Mean",[2],76 U/L
same,"ALT, Mean",[2],66 U/L
same,"AST, Mean",[2],144 U/L
same,"BUN, Mean",[2],22 mg/dL
same,"CA, Mean",[2],12.9 mg/dL
same,"NA+, Mean",[2],149 mmol/L
same,"TBIL, Mean",[2],0.4 mg/dL
same,"TP, Mean",[2],4.7 g/dL
same,"tumor growth (significant reduction, down to)",[3],55.6%
same,fasting glucose levels,[4]; fasting 16 h,tends to lower
same,glucose levels,[4]; without fasting,tends to lower
same,calcium levels vs reference range for NOD CB17-Prkdc^scid/NcrCrl mice,[5],overlap with the reference range
same,"calcium level, Mean",[5]; N 4,11.93
same,ALT level,[5]; vs control,no significant effect
same,AMH serum levels,[5]; vs control,no significant effect
same,AST level,[5]; vs control,no significant effect
same,total bilirubin level,[5]; vs control,no significant effect
